Data: US20220282304A1, “SAME-SAMPLE ANTIBIOTIC SUSCEPTIBILITY TEST AND RELATED COMPOSITIONS, METHODS AND SYSTEMS” (CALIFORNIA INSTITUTE OF TECHNOLOGY, priority 2021, published 2022)

Tested on: Escherichia coli K12
Test: Digital same-sample filtration AST at four cell densities (Example 7)
Type: cell-based
Conditions: for treated condition EINAPV (fraction extracellular): untreated EINAPV 0; for Both (number of wells) / Empty (number of wells) / Extracellular only (number of wells) / Intracellular only (number of wells): 60 minutes 37° C., qPCR
Description: The inoculum was small enough that no detectable difference in the sample's optical density at 600 mm (OD600) was detectable by a spectrophotometer with a sensitivity of 0.01 absorbance units. After an incubation at 37° C., the media became turbid with an OD600 of 0.22 absorbance units after 2.25 hours of incubation.
In this experiment, the number and volume of sample partitions was restricted, for logistical reasons, to 96 partitions 10 μL in volume, specifically the wells of a 96-well plate. A goal was chosen of having a >98% chance of ending up with at least 48 empty partitions. When all partitions are the same volume, the following formula relates the expected number of empty partitions, the partition volume, and the density of cells.
N is the total number of partitions, n is the number of empty partitions, V is the partition volume, D is the density of cells, and t is a threshold probability chosen by the practitioner. Thus, in order to achieve digital sample partitioning with the available 96-well plate, each 10 μL sample of the specimen practically contains between 0.02 and 2.5 cells on average. In this experiment, densities of 0, 0.5, 1, and 2 cells per sample were targeted. Due to systematic bias in the conversion of OD600 to cell density, the actual densities achieved were closer to 0, 0.09375, 0.1875, and 0.375 cells per sample. The specimen itself was diluted to a density of 37.5 CFU/mL (0.0375 cells/μL), 18.75 CFU/mL, and 9.375 CFU/mL to achieve the target sample densities. For the 0 cell samples, the specimen comprised sterile media.
To begin the AST protocol, the 4 contrived clinical specimen dilutions were physically split into the 24 partitions each by transferring 10 μL of the sample, in 24 separate transfers (actually 3 transfers with a multichannel pipette of each dilution), to wells of a 96-well microtiter plate. Each well contained 15 μL of Mueller-Hinton Broth (MHB) growth media. Half of the wells (48) contained 0 μg/mL of dissolved ETP antibiotic and served as reference condition antibiotic exposures. The other half of the wells contained 1.67 μg/mL of ETP (for a final concentration of 1.0 μg/mL) and served as 48 treated condition antibiotic exposures. Thus, in total there were 8 groups of 12 replicate wells: a treated and an untreated group of wells for each of the four specimen dilutions. In actuality, however, due to operator error, 4 treated 0 cell conditions and 4 untreated 0 cell conditions were converted into the corresponding 0.1875 cell conditions.
The 96 antibiotic exposures were incubated at 37° C. for 60 minutes.
The entire volume of each antibiotic exposure was transferred to a Millipore® 96-well sterile polystyrene MultiScreenHTS® filter plate (Millipore-Sigma MSGVS2210). Each well of the filter plate contained a hydrophilic polyvinylidene fluoride (PVDF) filter membrane with a 0.22 μm pore size. A 96-well polypropylene microtiter plate was affixed to the bottom of the filter plate. At approximately 78 minutes after the start of the exposure, the antibiotic exposures were centrifuged at 2200 relative centrifugal force to speed the passage of the antibiotic exposure through the filter and into 96-well microtiter plate. The collected fluid was called the “filtrate.” It is expected that the filtrate will contain all or most of the extracellular nucleic acids present in the antibiotic exposure, but none of the intracellular nucleic acids in the antibiotic exposure.
As soon as possible (e.g. 0-10 minutes) after the centrifugation of the filter plate, […] of fresh MHB media was spun through the filters after the first centrifugation (above) to wash away residual extracellular nucleic acids present in the small amount (about 3 μL) of fluid wetting the filters. This wash fluid is not collected with the filtrates.
The filtrates were frozen at −80° C. to prevent hypothetical rRNA degradation. Lucigen DNA Extraction Buffer was not used to “extract” the filtrate DNA. […]

[1] = Treated 1.0 μg ETP/mL, batch culture dilution 0 cells, 8 partitions
[2] = Treated 1.0 μg ETP/mL, batch culture dilution 0.09375 cells, 12 partitions
[3] = Treated 1.0 μg ETP/mL, batch culture dilution 0.1875 cells, 16 partitions
[4] = Treated 1.0 μg ETP/mL, batch culture dilution 0.375 cells, 12 partitions
[5] = Treated 1.0 μg ETP/mL, batch culture dilution 0 cells
[6] = Treated 1.0 μg ETP/mL, batch culture dilution 0.09375 cells
[7] = Treated 1.0 μg ETP/mL, batch culture dilution 0.1875 cells
[8] = Treated 1.0 μg ETP/mL, batch culture dilution 0.375 cells

With `C[C@@H](O)[C@H]1C(=O)N2C(C(=O)O)=C(S[C@@H]3CN[C@H](C(=O)Nc4cccc(C(=O)O)c4)C3)[C@H](C)[C@H]12` [ETP, ertapenem] the “treated condition EINAPV (fraction extracellular)” value (1.0 μg/mL ETP, non-zero dilution 0.09375 cells) was 1, the “treated condition EINAPV (fraction extracellular)” value (1.0 μg/mL ETP, non-zero dilution 0.1875 cells) was 1 and the “treated condition EINAPV (fraction extracellular)” value (1.0 μg/mL ETP, non-zero dilution 0.375 cells) was 1. The “susceptibility call (measured TRPQ higher than APTV)” value (1.0 μg/mL ETP, one pooled treated vs one pooled reference condition) was “susceptible”, the “susceptibility call (binomial exact test)” value (1.0 μg/mL ETP, significance threshold 0.001) was “susceptible” and the “Both (number of wells)” value [1] was 0. The “Empty (number of wells)” value [1] was 8, the “Extracellular only (number of wells)” value [1] was 0 and the “Intracellular only (number of wells)” value [1] was 0. For the same compound, the “Both (number of wells)” value [2] was 0, the “Empty (number of wells)” value [2] was 10 and the “Extracellular only (number of wells)” value [2] was 2. The “Intracellular only (number of wells)” value [2] was 0, the “Both (number of wells)” value [3] was 0 and the “Empty (number of wells)” value [3] was 13. For the same compound, the “Extracellular only (number of wells)” value [3] was 3, the “Intracellular only (number of wells)” value [3] was 0 and the “Both (number of wells)” value [4] was 0. For the same compound, the “Empty (number of wells)” value [4] was 2, the “Extracellular only (number of wells)” value [4] was 10 and the “Intracellular only (number of wells)” value [4] was 0. The “Intact (expected number of cells)” value [5] was 0, the “Killed (expected number of cells)” value [5] was 0 and the “Intact (expected number of cells)” value [6] was 0. The “Killed (expected number of cells)” value [6] was 2.14, the “Intact (expected number of cells)” value [7] was 0 and the “Killed (expected number of cells)” value [7] was 3.32. The “Intact (expected number of cells)” value [8] was 0, the “Killed (expected number of cells)” value [8] was 15.69 and the “estimated cells lysed, all treated samples pooled” value (Treated 1.0 μg ETP/mL, sum over dilutions, rounded to 21 lysis events) was 21.25.
